Results published in patent publication US7585864B2, “Farnesyl protein transferase inhibitors and their use to treat cancer” (Schering Corporation, priority 2004, dated 2009).

How the values were obtained:
Human tumor cells = assay: Soft Agar Assay (anchorage-independent growth); assay type: cell-based; conditions: colony outgrowth in 0.3% agarose, 10-16 days, MTT staining
Experimental: Anchorage-independent growth is a characteristic of tumorigenic cell lines. Human tumor cells can be suspended in growth medium containing 0.3% agarose and an indicated concentration of a farnesyl transferase inhibitor. The solution can be overlayed onto growth medium solidified with 0.6% agarose containing the same concentration of farnesyl transferase inhibitor as the top layer. After the top layer is solidified, plates can be incubated for 10-16 days at 37° C. under 5% CO2 to allow colony outgrowth. After incubation, the colonies can be stained by overlaying the agar with a solution of MTT (3-[4,5-dimethyl-thiazol-2-yl]-2,5-diphenyltetrazolium bromide, Thiazolyl blue) (1 mg/mL in PBS). Colonies can be counted and the IC50's can be determined.

[1] = molecular target: purified human farnesyl protein transferase (Homo sapiens, UniProt P49354+P49356); assay: FPT IC50 Assay; assay type: biochemical; conditions: transfer of [3H] farnesyl to biotinylated H-ras peptide (biotin-CVLS), 37° C., 60 minutes
Experimental: FPT activity was determined by measuring the transfer of [^3H] farnesyl from [^3H] farnesyl pyrophosphate to a biotinylated peptide derived from the C-terminus of H-ras (biotin-CVLS). The reaction mixture contains: 50 mM Tris pH7.7, 5 mM MgCl2, 5 μM Zn^++, 5 mM DTT, 0.1% Triton-X, 0.05 μM peptide, 0.03 nM purified human farnesyl protein transferase, 0.180 μM [^3H] farnesyl pyrophosphate, plus the indicated concentration of tricyclic compound or vehicle control in a total volume of 100 μl. The reaction was incubated in a Vortemp shaking incubator at 37° C., 45 RPM for 60 minutes and stopped with 150 μl of 0.25 M EDTA containing 0.5% BSA and 1.3 mg/ml Streptavidin SPA beads. Radioactivity was measured in a Wallach 1450 Microbeta liquid scintillation counter. Percent inhibition was calculated relative to the vehicle control.

Compound	IC50 (Human tumor cells) [nM]	IC50 [1] [nM]
Cc1cn(CCCN(Cc2ccccc2)C(=O)[C@H]2CN([C@H]3c4ccc(Cl)cc4OCc4cccnc43)CCN2C(=O)OC(C)(C)C)cn1 [Example 1]	28	3
Cc1cn(C[C@@H]2CCCN(C(=O)[C@@H]3CN([C@H]4c5ccc(Cl)cc5OCc5cccnc54)CCN3C(=O)OC(C)(C)C)C2)cn1 [Example 4]	< 5	0.12
Cc1cn(C[C@@H]2CCCN(C(=O)[C@H]3CN([C@@H]4c5ccc(Cl)cc5OCc5cccnc54)CCN3C(=O)OC3CCCCC3)C2)cn1 [Example 11]		0.16
